Data on four compounds can be found in US20250376498A1, “FUSION PROTEINS COMPRISING AN IMPROVED GLP-1 RECEPTOR AGONIST AND USES THEREOF” (Guangzhou Innogen Pharmaceutical Group Co., Ltd., priority 2022, published 2025).

Read-outs that look alike come from different tables or passages of the source.

The conditions of data set [1]: cited from earlier work.
The nature of data set [2]: Determination of oxidation levels by LC-MS/MS. The class given is physicochemical. The method, then: Following the protein oxidation measurement method described in Example 2 or by referring to Bettinger et al., the oxidation levels were determined. It was observed that the GLP-1 fusion protein YN-011 of the present invention was not oxidized at position W31, whereas the oxidation level of […] at the same position exceeded 5%. The oxidation occurred at the location indicated by the rectangular box in the structure of W31.

In the next data set the test system is db/db mice. Kind of data set: Multiple subcutaneous injections in db/db mice (type 2 diabetes model). The class given is in vivo. As to conditions: db/db mice. The method, then: The impact of multiple subcutaneous injections of YN-011 on reducing blood glucose levels was evaluated in db/db mice (Jackson Laboratories, 000642). The mice were kept under normal lighting conditions (12 hours light/12 hours dark) and at room temperature, with free access to food (normal rodent chow) and water. Db/db mice lack leptin receptors and spontaneously develop obesity, hyperglycemia, and pancreatic B-cell atrophy by 4 weeks of age.
Sixty affected db/db mice (33-45g) were divided into six groups of 10 mice each (5 males and 5 females) and administered 0 (PBS buffer control), 0.15, 0.3, 0.6, or 1.2 mg/kg of YN-011, or 0.3 mg/kg of Degludec via subcutaneous injection. Another group of wild-type mice (17-22g) with the same genetic background served as the normal control. The administration frequency was once every 3 days (Q3D), with a total of 9 doses administered over a period of 26 days. […] The duration of the hypoglycemic effect ranged from 34 to 72 hours within the dose range of 0.15-1.2 mg/kg.

The conditions of data set [3]: marketed drugs, refs [22], [24]; cited from earlier work.
The conditions of data set [4]: cited from earlier work. This is another data set of the same source.
The mark [5] stands for this setting: dulaglutide 1.5 mg, 26 weeks (Shi et al.).
Where [6] appears, read: dulaglutide 1.5 mg in combination with metformin, 40 weeks (Dungan et al.).
Where [7] appears, read: semaglutide 1 mg, 30 weeks (Sorli et al.).

For `CCCCCCCCCCCCCCCC(=O)N[C@@H](CCC(=O)NCCCC[C@H](NC(=O)[C@H](C)NC(=O)[C@H](C)NC(=O)[C@H](CCC(N)=O)NC(=O)CNC(=O)[C@H](CCC(=O)O)NC(=O)[C@H](CC(C)C)NC(=O)[C@H](Cc1ccc(O)cc1)NC(=O)[C@H](CO)NC(=O)[C@H](CO)NC(=O)[C@@H](NC(=O)[C@H](CC(=O)O)NC(=O)[C@H](CO)NC(=O)[C@@H](NC(=O)[C@H](Cc1ccccc1)NC(=O)[C@@H](NC(=O)CNC(=O)[C@H](CCC(=O)O)NC(=O)[C@H](C)NC(=O)[C@@H](N)Cc1cnc[nH]1)[C@@H](C)O)[C@@H](C)O)C(C)C)C(=O)N[C@@H](CCC(=O)O)C(=O)N[C@@H](Cc1ccccc1)C(=O)N[C@H](C(=O)N[C@@H](C)C(=O)N[C@@H](Cc1c[nH]c2ccccc12)C(=O)N[C@@H](CC(C)C)C(=O)N[C@H](C(=O)N[C@@H](CCCNC(=N)N)C(=O)NCC(=O)N[C@@H](CCCNC(=N)N)C(=O)NCC(=O)O)C(C)C)[C@@H](C)CC)C(=O)O` [liraglutide], the incidence of nausea in data set [1] (liraglutide 1 mg, 24 weeks (Shuai et al.)) is 5.6%; in data set [1] (liraglutide 3 mg, 24 weeks (Shuai et al.)), 10%.

With Degludec [reference compound], in data set [2], the “oxidation level at position M253” value is “exceeding 5%” and the “oxidation level at position W31” value is given as “exceeded 5%”. Further, the “average rate of fasting blood glucose reduction” value in the data set with db/db mice (0.3 mg/kg Q3D sc, average over measurement time points) came out at 63.6%. Moreover, in the data set on db/db mice (Q3D sc, YN-011 all dose groups (P<0.001), Degludec 0.3 mg/kg), the “fasting blood glucose levels versus model control group” value is given as “significant decrease”.

“Dulaglutide: DPP-IV protected GLP-1 analog fused with an IgG4/Fc fragment”: the “half-life / elimination half-life” value in data set [3] is 113 to 132 h. Also, the incidence of hypoglycemia in data set [1] (dulaglutide 0.75 mg, 26 weeks (Shi et al.)) is recorded as 4.1%. For the same compound, in data set [1] (setting [5]), the incidence of hypoglycemia is 6.3%, the incidence of nausea is 9.5% and the “reduction in HbA1c levels” value is reported as 1.46%. Besides, in data set [4] (setting [6]), the incidence of hypoglycemia is recorded as 9%, the incidence of nausea is 20%, the “reduction in FPG levels” value is on record as 1.93% and the “reduction in HbA1c levels” value was 1.42%.

Regarding Semaglutide, in data set [3], the “half-life / elimination half-life” value was 137 to 161 h. For the same compound, the incidence of nausea in data set [1] (semaglutide 0.5 mg, 30 weeks (Sorli et al.)) was 20%; in data set [1] (setting [7]), 24%; in data set [4] (semaglutide 1 mg in combination with metformin, 30 weeks (Ji et al.)) it was 13.4%. Further, in data set [1] (setting [7]), the “reduction in HbA1c levels” value is given as 1.55%.
